Data: ChEMBL document CHEMBL4251574, “Design, synthesis, and biological evaluation of new 1,2,3-triazolo-2'-deoxy-2'-fluoro- 4'-azido nucleoside derivatives as potent anti-HBV agents” (Eur J Med Chem, 2018)

Assays:
Format in all cases: functional
Hepatitis B virus [1] = test: Antiviral activity against Hepatitis B virus infected in human HepG2.2.15 cells assessed as inhibition of HBeAg secretion at 5 uM after 9 days by ELISA relative to control; details: HepG2.2.15, 216 h
Hepatitis B virus [2] = test: Antiviral activity against Hepatitis B virus infected in human HepG2.2.15 cells assessed as inhibition of HBsAg secretion at 5 uM after 9 days by ELISA relative to control; details: HepG2.2.15, 216 h
HepG2 2.2.15 = test: Cytotoxicity against human HepG2.2.15 cells after 9 days by MTT assay; details: HepG2 2.2.15, 216 h
Hepatitis B virus [3] = test: Antiviral activity against Hepatitis B virus infected in human HepG2.2.15 cells assessed as inhibition of intracellular HBV DNA level at 0.2 uM measured on day 9 by FQ-PCR analysis; details: HepG2.2.15, 216 h
Hepatitis B virus [4] = test: Antiviral activity against Hepatitis B virus infected in human HepG2.2.15 cells assessed as inhibition of intracellular HBV DNA level at 1 uM measured on day 9 by FQ-PCR analysis; details: HepG2.2.15, 216 h
Hepatitis B virus [5] = test: Antiviral activity against Hepatitis B virus infected in human HepG2.2.15 cells assessed as inhibition of intracellular HBV DNA level at 5 uM measured on day 9 by FQ-PCR analysis; details: HepG2.2.15, 216 h
Hepatitis B virus [6] = test: Antiviral activity against Hepatitis B virus harboring rtV173L/L180M/M204V mutant infected in HepGRL1 cells assessed as inhibition of intracellular HBV DNA level at 0.2 uM measured on day 9 by FQ-PCR analysis relative to control; details: 216 h
Hepatitis B virus [7] = test: Antiviral activity against Hepatitis B virus harboring rtV173L/L180M/M204V mutant infected in HepGRL1 cells assessed as inhibition of intracellular HBV DNA level at 1 uM measured on day 9 by FQ-PCR analysis relative to control; details: 216 h
Hepatitis B virus [8] = test: Antiviral activity against Hepatitis B virus harboring rtV173L/L180M/M204V mutant infected in HepGRL1 cells assessed as inhibition of intracellular HBV DNA level at 5 uM measured on day 9 by FQ-PCR analysis relative to control; details: 216 h
Hepatitis B virus [9] = test: Antiviral activity against Hepatitis B virus harboring rtV173L/L180M/M204V mutant infected in HepGRL1 cells assessed as inhibition of intracellular HBV DNA level at 0.2 uM measured on day 6 by FQ-PCR analysis relative to control; details: 144 h
Hepatitis B virus [10] = test: Antiviral activity against Hepatitis B virus harboring rtV173L/L180M/M204V mutant infected in HepGRL1 cells assessed as inhibition of intracellular HBV DNA level at 1 uM measured on day 6 by FQ-PCR analysis relative to control; details: 144 h
Hepatitis B virus [11] = test: Antiviral activity against Hepatitis B virus harboring rtV173L/L180M/M204V mutant infected in HepGRL1 cells assessed as inhibition of intracellular HBV DNA level at 5 uM measured on day 6 by FQ-PCR analysis relative to control; details: 144 h
Hepatitis B virus [12] = test: Antiviral activity against Hepatitis B virus infected in human HepG2.2.15 cells assessed as inhibition of intracellular HBV DNA level at 0.2 uM measured on day 6 by FQ-PCR analysis; details: HepG2.2.15, 144 h
Hepatitis B virus [13] = test: Antiviral activity against Hepatitis B virus infected in human HepG2.2.15 cells assessed as inhibition of intracellular HBV DNA level at 1 uM measured on day 6 by FQ-PCR analysis; details: HepG2.2.15, 144 h
Hepatitis B virus [14] = test: Antiviral activity against Hepatitis B virus infected in human HepG2.2.15 cells assessed as inhibition of intracellular HBV DNA level at 5 uM measured on day 6 by FQ-PCR analysis; details: HepG2.2.15, 144 h
Duck hepatitis B virus [15] = test: Antiviral activity against DHBV infected in duck assessed as inhibition of viral DNA level in serum at 0.04 mg/kg, po administered once daily measured on day 10 by SYBR Green I dye-based FQ-PCR analysis relative to control; details: 240 h
Duck hepatitis B virus [16] = test: Antiviral activity against DHBV infected in duck assessed as inhibition of viral DNA level in serum at 0.2 mg/kg, po administered once daily measured on day 10 by SYBR Green I dye-based FQ-PCR analysis relative to control; details: 240 h
Duck hepatitis B virus [17] = test: Antiviral activity against DHBV infected in duck assessed as inhibition of viral DNA level in serum at 1 mg/kg, po administered once daily measured on day 10 by SYBR Green I dye-based FQ-PCR analysis relative to control; details: 240 h
Duck hepatitis B virus [18] = test: Antiviral activity against DHBV infected in duck assessed as inhibition of viral DNA level in serum at 0.04 mg/kg, po administered once daily measured on day 15 by SYBR Green I dye-based FQ-PCR analysis relative to control; details: 360 h
Duck hepatitis B virus [19] = test: Antiviral activity against DHBV infected in duck assessed as inhibition of viral DNA level in serum at 0.2 mg/kg, po administered once daily measured on day 15 by SYBR Green I dye-based FQ-PCR analysis relative to control; details: 360 h
Duck hepatitis B virus [20] = test: Antiviral activity against DHBV infected in duck assessed as inhibition of viral DNA level in serum at 1 mg/kg, po administered once daily measured on day 15 by SYBR Green I dye-based FQ-PCR analysis relative to control; details: 360 h
Duck hepatitis B virus [21] = test: Antiviral activity against DHBV infected in duck assessed as inhibition of viral DNA level in liver at 0.04 mg/kg, po administered once daily measured on day 10 by SYBR Green I dye-based FQ-PCR analysis relative to control; details: 240 h
Duck hepatitis B virus [22] = test: Antiviral activity against DHBV infected in duck assessed as inhibition of viral DNA level in liver at 0.2 mg/kg, po administered once daily measured on day 10 by SYBR Green I dye-based FQ-PCR analysis relative to control; details: 240 h
Duck hepatitis B virus [23] = test: Antiviral activity against DHBV infected in duck assessed as inhibition of viral DNA level in liver at 1 mg/kg, po administered once daily measured on day 10 by SYBR Green I dye-based FQ-PCR analysis relative to control; details: 240 h
Duck hepatitis B virus [24] = test: Antiviral activity against DHBV infected in duck assessed as inhibition of viral DNA level in liver at 0.04 mg/kg, po administered once daily measured on day 15 by SYBR Green I dye-based FQ-PCR analysis relative to control; details: 360 h
Duck hepatitis B virus [25] = test: Antiviral activity against DHBV infected in duck assessed as inhibition of viral DNA level in liver at 0.2 mg/kg, po administered once daily measured on day 15 by SYBR Green I dye-based FQ-PCR analysis relative to control; details: 360 h
Duck hepatitis B virus [26] = test: Antiviral activity against DHBV infected in duck assessed as inhibition of viral DNA level in liver at 1 mg/kg, po administered once daily measured on day 15 by SYBR Green I dye-based FQ-PCR analysis relative to control; details: 360 h
Hepatitis B virus [27] = test: Antiviral activity against Hepatitis B virus infected in human HepG2.2.15 cells assessed as inhibition of HBeAg secretion at 20 uM after 9 days by ELISA relative to control; details: HepG2.2.15, 216 h
Hepatitis B virus [28] = test: Antiviral activity against Hepatitis B virus infected in human HepG2.2.15 cells assessed as inhibition of HBsAg secretion at 20 uM after 9 days by ELISA relative to control; details: HepG2.2.15, 216 h
Hepatitis B virus [29] = test: Antiviral activity against Hepatitis B virus infected in human HepG2.2.15 cells assessed as inhibition of intracellular HBV DNA level at 20 uM measured on day 9 by FQ-PCR analysis; details: HepG2.2.15, 216 h
Hepatitis B virus [30] = test: Antiviral activity against Hepatitis B virus harboring rtV173L/L180M/M204V mutant infected in HepGRL1 cells assessed as inhibition of intracellular HBV DNA level at 20 uM measured on day 9 by FQ-PCR analysis relative to control; details: 216 h
Hepatitis B virus [31] = test: Antiviral activity against Hepatitis B virus harboring rtV173L/L180M/M204V mutant infected in HepGRL1 cells assessed as inhibition of intracellular HBV DNA level at 20 uM measured on day 6 by FQ-PCR analysis relative to control; details: 144 h
Hepatitis B virus [32] = test: Antiviral activity against Hepatitis B virus infected in human HepG2.2.15 cells assessed as intracellular HBV DNA levels at 20 uM measured on day 6 by FQ-PCR analysis; details: HepG2.2.15, 144 h
Duck hepatitis B virus [33] = test: Antiviral activity against DHBV infected in duck assessed as inhibition of viral DNA level in serum at 10 mg/kg, po administered once daily measured on day 10 by SYBR Green I dye-based FQ-PCR analysis relative to control; details: 240 h
Duck hepatitis B virus [34] = test: Antiviral activity against DHBV infected in duck assessed as inhibition of viral DNA level in serum at 10 mg/kg, po administered once daily measured on day 15 by SYBR Green I dye-based FQ-PCR analysis relative to control; details: 360 h
Duck hepatitis B virus [35] = test: Antiviral activity against DHBV infected in duck assessed as inhibition of viral DNA level in liver at 10 mg/kg, po administered once daily measured on day 10 by SYBR Green I dye-based FQ-PCR analysis relative to control; details: 240 h
Duck hepatitis B virus [36] = test: Antiviral activity against DHBV infected in duck assessed as inhibition of viral DNA level in liver at 10 mg/kg, po administered once daily measured on day 15 by SYBR Green I dye-based FQ-PCR analysis relative to control; details: 360 h

[N-]=[N+]=N[C@]1(CO)O[C@@H](n2cc(C(N)=O)nn2)[C@@H](F)[C@@H]1O
inhibition at 5 µM (Hepatitis B virus [1]): 21.9%
inhibition at 5 µM (Hepatitis B virus [2]): 45.3%
CC50 (HepG2 2.2.15): 526 µM
inhibition at 0.2 µM (Hepatitis B virus [3]): 34.7%
inhibition at 1 µM (Hepatitis B virus [4]): 51%
inhibition at 5 µM (Hepatitis B virus [5]): 57.1%
inhibition at 0.2 µM (Hepatitis B virus [6]): 28.2%
inhibition at 1 µM (Hepatitis B virus [7]): 52.4%
inhibition at 5 µM (Hepatitis B virus [8]): 64.1%
inhibition at 0.2 µM (Hepatitis B virus [9]): 15.8%
inhibition at 1 µM (Hepatitis B virus [10]): 27.5%
inhibition at 5 µM (Hepatitis B virus [11]): 49.2%
inhibition at 0.2 µM (Hepatitis B virus [12]): 13.1%
inhibition at 1 µM (Hepatitis B virus [13]): 39.3%
inhibition at 5 µM (Hepatitis B virus [14]): 42.6%
inhibition in vivo at 0.04 mg/kg (Duck hepatitis B virus [15]): 8.7%
inhibition in vivo at 0.2 mg/kg (Duck hepatitis B virus [16]): 26.1%
inhibition in vivo at 1 mg/kg (Duck hepatitis B virus [17]): 56.5%
inhibition in vivo at 0.04 mg/kg (Duck hepatitis B virus [18]): 35.7%
inhibition in vivo at 0.2 mg/kg (Duck hepatitis B virus [19]): 39.3%
inhibition in vivo at 1 mg/kg (Duck hepatitis B virus [20]): 67.9%
inhibition in vivo at 0.04 mg/kg (Duck hepatitis B virus [21]): 7.1%
inhibition in vivo at 0.2 mg/kg (Duck hepatitis B virus [22]): 21.4%
inhibition in vivo at 1 mg/kg (Duck hepatitis B virus [23]): 50%
inhibition in vivo at 0.04 mg/kg (Duck hepatitis B virus [24]): 12.2%
inhibition in vivo at 0.2 mg/kg (Duck hepatitis B virus [25]): 24.4%
inhibition in vivo at 1 mg/kg (Duck hepatitis B virus [26]): 53.7%

[N-]=[N+]=N[C@]1(CO)O[C@@H](n2cc(C3CC3)nn2)[C@@H](F)[C@@H]1O
inhibition at 5 µM (Hepatitis B virus [1]): 26.2%
inhibition at 5 µM (Hepatitis B virus [2]): 28.9%
CC50 (HepG2 2.2.15): > 1000 µM

COC(=N)c1cn([C@@H]2O[C@@](CO)(N=[N+]=[N-])[C@@H](O)[C@@H]2F)nn1
inhibition at 5 µM (Hepatitis B virus [1]): 11.4%
inhibition at 5 µM (Hepatitis B virus [2]): 17.7%
CC50 (HepG2 2.2.15): 101 µM

Nc1ccn([C@@H]2CS[C@H](CO)O2)c(=O)n1 [LAMIVUDINE]
inhibition at 20 µM (Hepatitis B virus [27]): 22.1%
inhibition at 20 µM (Hepatitis B virus [28]): 47.7%
CC50 (HepG2 2.2.15): > 1000 µM
inhibition at 20 µM (Hepatitis B virus [29]): 85.7%
inhibition at 20 µM (Hepatitis B virus [30]): 12.9%
inhibition at 20 µM (Hepatitis B virus [31]): 10.8%
inhibition at 20 µM (Hepatitis B virus [32]): 75.4%
inhibition in vivo at 10 mg/kg (Duck hepatitis B virus [33]): 65.2%
inhibition in vivo at 10 mg/kg (Duck hepatitis B virus [34]): 85.7%
inhibition in vivo at 10 mg/kg (Duck hepatitis B virus [35]): 57.1%
inhibition in vivo at 10 mg/kg (Duck hepatitis B virus [36]): 75.6%

[N-]=[N+]=N[C@]1(CO)O[C@@H](n2cc(-c3nnn[nH]3)nn2)[C@@H](F)[C@@H]1O
inhibition at 5 µM (Hepatitis B virus [1]): 20%
inhibition at 5 µM (Hepatitis B virus [2]): 40%
CC50 (HepG2 2.2.15): > 1000 µM
